From article PMC3930709, “Selective Activation of hTRPV1 by N-Geranyl Cyclopropylcarboxamide, an Amiloride-Insensitive Salt Taste Enhancer” (PLoS ONE, 2014)
Like-named read-outs stand apart in the source and are kept apart here.

Key:
[1] = target: T1, αβγ hENaC (Homo sapiens, UniProt P37088+P51168+P51170); parameters: method as in PMID 18326490; settings: read-out: EC50 of S3969 obtained by patch-clamp; cited from earlier work
T1 construct: GFP; host or cells: HEK293T
T1 sequence (P37088 1-669): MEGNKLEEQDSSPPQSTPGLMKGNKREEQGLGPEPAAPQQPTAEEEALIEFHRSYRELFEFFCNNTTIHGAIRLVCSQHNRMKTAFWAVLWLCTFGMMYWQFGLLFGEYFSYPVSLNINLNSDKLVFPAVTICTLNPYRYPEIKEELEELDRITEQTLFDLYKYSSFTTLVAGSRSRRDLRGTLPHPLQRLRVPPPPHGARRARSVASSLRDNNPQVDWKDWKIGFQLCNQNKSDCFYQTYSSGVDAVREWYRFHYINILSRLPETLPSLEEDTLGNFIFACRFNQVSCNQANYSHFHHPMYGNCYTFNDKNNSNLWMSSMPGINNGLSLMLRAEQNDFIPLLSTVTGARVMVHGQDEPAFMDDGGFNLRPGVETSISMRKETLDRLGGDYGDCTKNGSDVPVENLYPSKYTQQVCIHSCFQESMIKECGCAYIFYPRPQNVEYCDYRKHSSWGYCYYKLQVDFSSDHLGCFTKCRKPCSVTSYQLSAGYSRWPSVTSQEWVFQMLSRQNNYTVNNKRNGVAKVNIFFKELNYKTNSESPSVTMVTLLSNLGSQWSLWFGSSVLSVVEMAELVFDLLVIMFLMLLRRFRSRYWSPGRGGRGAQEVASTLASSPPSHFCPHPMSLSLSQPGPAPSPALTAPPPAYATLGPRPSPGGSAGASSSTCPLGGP
T1 sequence (P51168 1-640): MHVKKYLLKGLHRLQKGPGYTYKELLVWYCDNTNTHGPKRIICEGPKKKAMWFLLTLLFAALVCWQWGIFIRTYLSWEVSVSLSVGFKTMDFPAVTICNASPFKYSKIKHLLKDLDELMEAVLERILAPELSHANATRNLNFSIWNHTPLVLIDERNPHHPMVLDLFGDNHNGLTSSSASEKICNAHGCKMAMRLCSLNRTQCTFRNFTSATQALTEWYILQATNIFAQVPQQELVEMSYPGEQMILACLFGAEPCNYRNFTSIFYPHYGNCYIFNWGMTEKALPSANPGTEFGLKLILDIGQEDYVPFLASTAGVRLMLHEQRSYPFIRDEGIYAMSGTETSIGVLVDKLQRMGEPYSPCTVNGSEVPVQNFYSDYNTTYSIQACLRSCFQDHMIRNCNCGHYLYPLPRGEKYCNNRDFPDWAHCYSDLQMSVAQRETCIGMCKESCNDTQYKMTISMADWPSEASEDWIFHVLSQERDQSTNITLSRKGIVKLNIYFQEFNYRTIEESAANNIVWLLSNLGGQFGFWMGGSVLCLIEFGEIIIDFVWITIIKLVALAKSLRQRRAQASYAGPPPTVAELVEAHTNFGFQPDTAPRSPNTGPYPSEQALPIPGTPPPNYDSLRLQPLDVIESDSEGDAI
T1 sequence (P51170 1-649): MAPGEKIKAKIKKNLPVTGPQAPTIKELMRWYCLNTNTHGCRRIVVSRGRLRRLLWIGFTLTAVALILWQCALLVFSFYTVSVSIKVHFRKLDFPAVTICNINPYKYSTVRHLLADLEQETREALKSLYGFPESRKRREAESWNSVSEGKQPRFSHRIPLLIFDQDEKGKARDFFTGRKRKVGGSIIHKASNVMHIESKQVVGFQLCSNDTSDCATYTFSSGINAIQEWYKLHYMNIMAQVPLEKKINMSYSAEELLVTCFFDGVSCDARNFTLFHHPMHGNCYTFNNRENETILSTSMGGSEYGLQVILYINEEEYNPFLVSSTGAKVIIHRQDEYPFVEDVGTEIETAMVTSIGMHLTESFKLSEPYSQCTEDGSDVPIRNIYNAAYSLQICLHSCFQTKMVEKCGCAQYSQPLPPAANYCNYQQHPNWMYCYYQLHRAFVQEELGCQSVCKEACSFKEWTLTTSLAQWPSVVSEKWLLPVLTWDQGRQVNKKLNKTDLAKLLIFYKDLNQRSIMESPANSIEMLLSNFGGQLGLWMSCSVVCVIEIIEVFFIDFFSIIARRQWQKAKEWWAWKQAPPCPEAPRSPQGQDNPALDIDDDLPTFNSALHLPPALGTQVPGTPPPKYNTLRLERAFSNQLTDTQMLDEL

[2] = target: T1, αβγ hENaC; experiment: Membrane potential assay (FMP dye) on αβγ hENaC-expressing cells; format: cell-based; settings: 0.03-10 µM; read-out: EC50, depolarization of membrane potential in hENaC expressing cells
Experimental: The α, β, and γ hENaC subunits were cloned from OriGene (Rockville, MD; GenBank accession number […] for SCNN1A, NM_000336 for SCNN1B and NM_001039 for SCNN1G). α, GFP-tagged β, and γ hENaC were cloned into a CMV promoter-based vector and expressed constitutively. The HEK293T cells were seeded onto a 35 mm dish and transfected with α, β, and γ hENaC expression plasmid using Lipofectamine 2000 (Invitrogen). Then, transfected cells were seeded onto 96-well black-wall plate for 18–26 h prior to their use in an experiment.
hENaC-expressing cells were characterized using FLIPER Membrane Potential (FMP) Assay Kit (Molecular Devices Corporation, Sunnyvale, CA, USA). In this assay, changes in the membrane potential were quantified via fluorescence change caused by FMP dye. The hENaC-expressing cells were washed with assay buffer (containing: 130 mM NaCl, 10 mM glucose, 5 mM KCl, 2 mM CaCl2, 1.2 mM MgCl2, and 10 mM HEPES, pH adjusted to 7.4 with NaOH) and subsequently, FMP blue-dye in assay buffer was loaded into the cells at room temperature for 30 min. After dye treatment, S3969 (0.03−10 µM), an ENaC agonist, S3969+Bz (ENaC antagonist, 0.01 µM), or NGCC (0.01−10 µM) was treated to hENaC-expressing cells. The plate was assayed in a FlexStation III plate reader (Molecular devices Corporation) by excitation at 530 nm and measuring the emission at 560 nm.

[3] = system: human δβγ ENaC; parameters: method as in PMID 18326490; settings: cited from earlier work
[4] = system: human αβγ ENaC; parameters: method as in PMID 18326490; settings: cited from earlier work
[5] = system: lingual surface potential to salt stimuli; parameters: method as in PMID 12736236, PMID 16809639; settings: amiloride 100 µM, humans, gustometer; cited from earlier work
[6] = system: chorda tympani (CT) taste nerve response to NaCl; parameters: method as in PMID 12736236, PMID 16809639; settings: cited from earlier work

Structure (SMILES) | EC50 [1] | EC50 [2] | IC50 [3] | IC50 [4] | reduction of lingual surface potential to salt stimuli [5] | inhibition of chorda tympani (CT) taste nerve response to NaCl [6]
Cc1cccc2[nH]cc(SC(CC(C)C)C(=O)NCCO)c12 (stereo not drawn) [S3969] | 1200 ± 100 nM | 1260 ± 290 nM |  |  |  | 
N=C(N)NC(=O)c1nc(Cl)c(N)nc1N [amiloride] |  |  | ~2700 nM | ~110 nM | 5–40% | about 70%
